Experimental data as given in patent publication US11931424B2, “Combination MCL-1 inhibitors with anti-body drug conjugates” (Gilead Sciences, Inc., priority 2021, dated 2024).

System: panel of breast cancer cell lines
Experiment: Compound A with targeted agents and chemotherapies, 72-hour in vitro proliferation assays
Assay type: cell-based
Conditions: 72-hour proliferation
[1] = AU565 cell line, compound A × partner
[2] = BT-20 cell line, compound A × partner
[3] = BT-474 cell line, compound A × partner
[4] = BT-549 cell line, compound A × partner
[5] = CAL-51 cell line, compound A × partner
[6] = CAL-85-1 cell line, compound A × partner
[7] = CAL-120 cell line, compound A × partner
[8] = CAL-148 cell line, compound A × partner
[9] = CAMA-1 cell line, compound A × partner
[10] = DU-4475 cell line, compound A × partner
[11] = EVSA-T cell line, compound A × partner
[12] = MCF7 cells, Compound A × partner agent
[13] = MDA-MB-175-VII cells, Compound A × partner agent
[14] = MDA-MB-231 cells, Compound A × partner agent
[15] = MDA-MB-361 cells, Compound A × partner agent
[16] = MDA-MB-436 cells, Compound A × partner agent
[17] = MDA-MB-453 cells, Compound A × partner agent
[18] = MDA-MB-468 cells, Compound A × partner agent
[19] = SK-BR-3 cells, Compound A × partner agent
[20] = SUM159PT cells, combination of compound A with the named agent
[21] = T47D cells, combination of compound A with the named agent
[22] = ZR-75-1 cells, combination of compound A with the named agent
[23] = ZR-75-30 cells, combination of compound A with the named agent

C[C@]12CC[C@@H]3c4ccc(O)cc4C[C@@H](CCCCCCCCC[S+]([O-])CCCC(F)(F)C(F)(F)F)[C@H]3[C@@H]1CC[C@@H]2O (stereo partly shown) [Fulvestrant]
Bliss Volume [1]: 6.82
HSA volume [1]: 2.40
Loewe Volume [1]: 4.57
Synergy Score [1]: 3.43
Bliss Volume [2]: 3.55
HSA volume [2]: 3.62
Loewe Volume [2]: 3.44
Synergy Score [2]: 8.19
Bliss Volume [3]: 2.68
HSA volume [3]: 1.47
Loewe Volume [3]: 1.42
Synergy Score [3]: 6.48
Bliss Volume [4]: 3.56
HSA volume [4]: 7.74
Loewe Volume [4]: 7.73
Synergy Score [4]: 6.08
Bliss Volume [5]: 0.71
HSA volume [5]: −1.89
Loewe Volume [5]: 0.82
Synergy Score [5]: 0.47
Bliss Volume [6]: −4.57
HSA volume [6]: −0.20
Loewe Volume [6]: −0.68
Synergy Score [6]: 2.63
Bliss Volume [7]: −4.96
HSA volume [7]: −4.48
Loewe Volume [7]: −4.09
Synergy Score [7]: 0.28
Bliss Volume [8]: −1.80
HSA volume [8]: −2.13
Loewe Volume [8]: −0.78
Synergy Score [8]: 4.58
Bliss Volume [9]: 4.38
HSA volume [9]: −0.63
Loewe Volume [9]: −0.83
Synergy Score [9]: 2.09
Bliss Volume [10]: 4.93
HSA volume [10]: 0.13
Loewe Volume [10]: 4.51
Synergy Score [10]: 2.58
Bliss Volume [11]: 6.75
HSA volume [11]: 1.08
Loewe Volume [11]: 1.59
Synergy Score [11]: 3.72
Bliss Volume (HCC38, compound A × partner): −3.19
HSA volume (HCC38, compound A × partner): −1.37
Loewe Volume (HCC38, compound A × partner): −1.82
Synergy Score (HCC38, compound A × partner): 2.63
Bliss Volume (HCC70, compound A × partner): 10.34
HSA volume (HCC70, compound A × partner): 9.70
Loewe Volume (HCC70, compound A × partner): 10.67
Synergy Score (HCC70, compound A × partner): 17.18
Bliss Volume (HCC1143, compound A × partner): 0.82
HSA volume (HCC1143, compound A × partner): −4.16
Loewe Volume (HCC1143, compound A × partner): 0.02
Synergy Score (HCC1143, compound A × partner): 2.79
Bliss Volume (HCC1569, compound A × partner): 3.84
HSA volume (HCC1569, compound A × partner): 4.70
Loewe Volume (HCC1569, compound A × partner): 5.59
Synergy Score (HCC1569, compound A × partner): 5.92
Bliss Volume (HCC1806, compound A × partner): −0.20
HSA volume (HCC1806, compound A × partner): −0.86
Loewe Volume (HCC1806, compound A × partner): 1.90
Synergy Score (HCC1806, compound A × partner): 2.60
Bliss Volume (HCC1937, compound A × partner): 2.31
HSA volume (HCC1937, compound A × partner): −0.65
Loewe Volume (HCC1937, compound A × partner): 2.38
Synergy Score (HCC1937, compound A × partner): 2.38
Bliss Volume (HCC1954, compound A × partner): 11.35
HSA volume (HCC1954, compound A × partner): 12.18
Loewe Volume (HCC1954, compound A × partner): 11.84
Synergy Score (HCC1954, compound A × partner): 16.73
Bliss Volume (HCC2218, compound A × partner): 1.16
HSA volume (HCC2218, compound A × partner): 1.89
Loewe Volume (HCC2218, compound A × partner): −1.02
Synergy Score (HCC2218, compound A × partner): 3.85
Bliss Volume (HDQ-P1, compound A × partner): −5.92
HSA volume (HDQ-P1, compound A × partner): −6.15
Loewe Volume (HDQ-P1, compound A × partner): −5.56
Synergy Score (HDQ-P1, compound A × partner): 0.42
Bliss Volume (HMC-1-8, compound A × partner): 10.58
HSA volume (HMC-1-8, compound A × partner): 7.21
Loewe Volume (HMC-1-8, compound A × partner): 7.81
Synergy Score (HMC-1-8, compound A × partner): 13.30
Bliss Volume (JIMT-1, compound A × partner): 5.80
HSA volume (JIMT-1, compound A × partner): 0.54
Loewe Volume (JIMT-1, compound A × partner): 4.52
Synergy Score (JIMT-1, compound A × partner): 1.26
Bliss Volume (KPL-1, compound A × partner): 0.30
HSA volume (KPL-1, compound A × partner): 1.12
Loewe Volume (KPL-1, compound A × partner): 1.04
Synergy Score (KPL-1, compound A × partner): 2.75
Bliss Volume [12]: 11.46
HSA volume [12]: 11.54
Loewe Volume [12]: 11.41
Bliss Volume [13]: 11.56
HSA volume [13]: 1.65
Loewe Volume [13]: 10.58
Synergy Score [13]: 7.62
Bliss Volume [14]: 1.26
HSA volume [14]: −0.76
Loewe Volume [14]: 1.50
Synergy Score [14]: 1.17
Bliss Volume [15]: −3.29
HSA volume [15]: −1.23
Loewe Volume [15]: −0.47
Synergy Score [15]: 3.34
Bliss Volume [16]: 1.52
HSA volume [16]: 2.87
Loewe Volume [16]: 2.94
Synergy Score [16]: 3.30
Bliss Volume [17]: −0.77
HSA volume [17]: −3.96
Loewe Volume [17]: −1.85
Synergy Score [17]: 4.79
Bliss Volume [18]: 6.94
HSA volume [18]: 6.17
Loewe Volume [18]: 7.22
Bliss Volume [19]: −2.14
HSA volume [19]: −3.78
Loewe Volume [19]: −2.67
Synergy Score [19]: 2.05
Bliss Volume [20]: 2.51
HSA volume [20]: 0.14
Loewe Volume [20]: 2.16
Synergy Score [20]: 1.23
Bliss Volume [21]: 0.17
HSA volume [21]: 2.12
Loewe Volume [21]: 3.30
Synergy Score [21]: 4.16
Bliss Volume [22]: 5.80
HSA volume [22]: 4.00
Loewe Volume [22]: 6.17
Synergy Score [22]: 4.22
Bliss Volume [23]: 1.91
HSA volume [23]: 1.18
Loewe Volume [23]: 1.80
Synergy Score [23]: 4.50

CC(C)NC[C@@H](C(=O)N1CCN(c2ncnc3c2[C@H](C)C[C@H]3O)CC1)c1ccc(Cl)cc1 [GDC-0068]
Best CI [1]: 0.88
Bliss Volume [1]: 5.42
HSA volume [1]: 2.46
Loewe Volume [1]: 1.85
Synergy Score [1]: 6.93
Best CI [2]: 0.15
Bliss Volume [2]: 14.37
HSA volume [2]: 13.36
Loewe Volume [2]: 11.91
Synergy Score [2]: 26.99
Best CI [5]: 0.66
Bliss Volume [5]: 1.90
HSA volume [5]: 2.22
Loewe Volume [5]: 2.48
Synergy Score [5]: 1.93
Best CI [6]: 0.22
Bliss Volume [6]: −1.63
HSA volume [6]: 2.26
Loewe Volume [6]: 1.63
Synergy Score [6]: 4.37
Best CI [7]: 0.04
Bliss Volume [7]: −1.18
HSA volume [7]: −0.50
Loewe Volume [7]: 0.09
Synergy Score [7]: 1.05
Best CI [8]: 0.20
Bliss Volume [8]: 15.98
HSA volume [8]: 11.23
Loewe Volume [8]: 11.35
Synergy Score [8]: 22.09
Best CI [9]: 0.11
Bliss Volume [9]: 26.60
HSA volume [9]: 14.33
Loewe Volume [9]: 13.52
Synergy Score [9]: 27.46
Bliss Volume [10]: −5.18
HSA volume [10]: −7.77
Loewe Volume [10]: −5.05
Synergy Score [10]: 0.20
Best CI [11]: 0.27
Bliss Volume [11]: 38.10
HSA volume [11]: 10.77
Loewe Volume [11]: 8.56
Synergy Score [11]: 18.16
Best CI (HCC38, compound A × partner): 1.04
Bliss Volume (HCC38, compound A × partner): 3.63
HSA volume (HCC38, compound A × partner): 6.49
Loewe Volume (HCC38, compound A × partner): 5.61
Synergy Score (HCC38, compound A × partner): 5.92
Best CI (HCC70, compound A × partner): 0.30
Bliss Volume (HCC70, compound A × partner): 19.29
HSA volume (HCC70, compound A × partner): 14.42
Loewe Volume (HCC70, compound A × partner): 13.10
Synergy Score (HCC70, compound A × partner): 27.63
Best CI (HCC1143, compound A × partner): 0.56
Bliss Volume (HCC1143, compound A × partner): 1.41
HSA volume (HCC1143, compound A × partner): −1.97
Loewe Volume (HCC1143, compound A × partner): 1.22
Synergy Score (HCC1143, compound A × partner): 3.73
Best CI (HCC1569, compound A × partner): 0.24
Bliss Volume (HCC1569, compound A × partner): 9.34
HSA volume (HCC1569, compound A × partner): 10.52
Loewe Volume (HCC1569, compound A × partner): 10.52
Synergy Score (HCC1569, compound A × partner): 15.41
Best CI (HCC1806, compound A × partner): 0.83
Bliss Volume (HCC1806, compound A × partner): 4.78
HSA volume (HCC1806, compound A × partner): −2.22
Loewe Volume (HCC1806, compound A × partner): 2.14
Synergy Score (HCC1806, compound A × partner): 2.21
Best CI (HCC1937, compound A × partner): 0.44
Bliss Volume (HCC1937, compound A × partner): 8.88
HSA volume (HCC1937, compound A × partner): 6.08
Loewe Volume (HCC1937, compound A × partner): 8.48
Synergy Score (HCC1937, compound A × partner): 6.18
Best CI (HCC1954, compound A × partner): 0.16
Bliss Volume (HCC1954, compound A × partner): 19.16
HSA volume (HCC1954, compound A × partner): 18.41
Loewe Volume (HCC1954, compound A × partner): 17.07
Synergy Score (HCC1954, compound A × partner): 33.91
Best CI (HCC2218, compound A × partner): 0.13
Bliss Volume (HCC2218, compound A × partner): 10.70
HSA volume (HCC2218, compound A × partner): 8.89
Loewe Volume (HCC2218, compound A × partner): 7.71
Synergy Score (HCC2218, compound A × partner): 22.09
Best CI (HDQ-P1, compound A × partner): 1.46
Bliss Volume (HDQ-P1, compound A × partner): −1.34
HSA volume (HDQ-P1, compound A × partner): −1.27
Loewe Volume (HDQ-P1, compound A × partner): −2.21
Synergy Score (HDQ-P1, compound A × partner): 1.94
Best CI (HMC-1-8, compound A × partner): 0.26
Bliss Volume (HMC-1-8, compound A × partner): 17.75
HSA volume (HMC-1-8, compound A × partner): 12.01
Loewe Volume (HMC-1-8, compound A × partner): 12.08
Synergy Score (HMC-1-8, compound A × partner): 21.76
Best CI (JIMT-1, compound A × partner): 0.26
Bliss Volume (JIMT-1, compound A × partner): 2.76
HSA volume (JIMT-1, compound A × partner): 1.18
Loewe Volume (JIMT-1, compound A × partner): 1.53
Synergy Score (JIMT-1, compound A × partner): 1.19
Synergy Score (KPL-1, compound A × partner): 10.58
